In patent publication US20050250742A1 (Pfizer Inc., priority 2004, published 2005) one finds Ki and Kd data, which are given here for 26 molecules.

In assay [1] the target is T1, PIN1-CD (catalytic peptidyl-prolyl isomerase domain, devoid of the PIN1 WW domain) (Homo sapiens, UniProt Q13526).
T1 construct: PIN1 peptide containing the catalytic peptidyl-prolyl isomerase domain but devoid of the PIN1 WW domain
As to the kind of experiment: Pin1 peptidyl-prolyl isomerase assay (protease-coupled, spectrophotometric). The format is biochemical. As to conditions: catalytic PPIase domain without WW domain; 15° C., pH 7.5, 100 μM Suc-AEPF-pNA. From the text: PIN1 is a phosphorylation dependent peptidyl-prolyl isomerase. The PIN1 assay is a spectrophotometric assay based on the coupled chymotrypsin or subtilisin catalyzed, cis-trans conformation dependent cleavage of a para-nitroanaline containing peptide substrate. […] Cleavage of the isomerized peptide releases para-nitroanaline, which can be monitored by an increase in absorbance at 390 nm. The PIN1 peptide substrate, succinyl-[…]-proline-phenylalanine-paranitroaniline (Suc-AEPF-pNA) (Bachem), is kept in a predominantly cis conformation with an anhydrous TFE/LiCl solvent mixture.
Upon dilution into an aqueous assay mixture containing PIN1, the peptide substrate undergoes PIN1 catalyzed isomerization to the trans conformation. […] To minimize the spontaneous isomerization of the peptide substrate, reactions are performed at 15° C. A typical reaction contains 25 mM MOPS pH 7.5, 0.5 mM TCEP, 2% DMSO, 5 μl of a 25 mg/ml solution of subtilisin Carlsberg, 50 nM PIN1-PPiase, and 100 μM Suc-AEPF-pNA peptide substrate. Reactions are cooled to 15° C. and initiated with the addition of Suc-AEPF-pNA. The absorbance at 390 nm is monitored continuously until all substrate has been converted to the cleaved product. […] The rate constant k is linearly proportional to the concentration of active enzyme present in the assay mixture once the rate constant for the spontaneous isomerization is subtracted. […] Therefore, during inhibition experiments, the IC50, for non-tight binding inhibitors, is essentially the inhibition constant Ki.
(§1) In Table 1, the Ki data reported under the PIN1—CD heading corresponds to testing with PIN1 peptide containing the catalytic peptidyl-prolyl isomerase domain but devoid of the PIN1 WW domain. Similarly, the dissociation constant (Kd) data under PIN1-CD refers to testing with a peptide containing the catalytic PIN1 domain but devoid of the PIN1 WW domain.

Assay [2] concerns the target T2, PIN1-CD (catalytic PIN1 domain, devoid of the PIN1 WW domain) (Homo sapiens, UniProt Q13526).
T2 construct: PIN1 peptide containing the catalytic peptidyl-prolyl isomerase domain but devoid of the PIN1 WW domain
The assay is described as follows: Dissociation constant (Kd) with PIN1 catalytic domain. As to conditions: peptide containing the catalytic PIN1 domain. Format: binding.
Text: as §1

Molecules are shown by their SMILES. Some results are limits rather than exact numbers.

T2 sequence (Q13526 52-163 limits assumed): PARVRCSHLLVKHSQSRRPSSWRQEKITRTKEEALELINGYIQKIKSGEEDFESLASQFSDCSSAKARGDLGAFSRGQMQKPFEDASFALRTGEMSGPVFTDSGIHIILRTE
T1 sequence (Q13526 52-163 limits assumed): as above

Consider `O=C(OCCCCc1ccccc1)[C@@H]1CCCCN1S(=O)(=O)N[C@@H](COP(=O)(O)O)Cc1ccccc1` [Example 5b1, 1-(2-Phenyl-1-phosphonooxymethyl-ethylsulfamoyl)-piperidine-2S-carboxylic acid 4-phenyl-butyl ester], for which the Ki (in general, a measure of affinity in units of concentration, obtained from inhibition or displacement) in assay [1] is less than 10 µM. The dissociation constant Kd (commonly the equilibrium constant for the complex coming apart) in assay [2] is less than 10 µM.
Take `O=C(O)[C@@H]1CCCCN1S(=O)(=O)N[C@@H](COP(=O)(O)O)Cc1ccccc1` [Example 5b2, 1-(2-Phenyl-1-phosphonooxymethyl-ethylsulfamoyl)-piperidine-2-carboxylic acid]: the inhibitory constant (Ki) in assay [1] is less than 10 µM. This molecule returned an equilibrium dissociation constant (Kd) in assay [2] of less than 10 µM.
For `O=P(O)(O)OC[C@@H](Cc1ccccc1)NS(=O)(=O)N1CCCC[C@H]1c1nnc(Cc2ccccc2)o1` [Example 5b5, Phosphoric acid mono-{(R)-2-[(S)-2-(5-benzyl-[1,3,4]oxadiazol-2-yl)-piperidine-1-sulfonylamino]-3-phenyl-propyl}ester], the inhibition constant (Ki) in assay [1] is less than 10 µM. In assay [2], this molecule showed a Kd of less than 10 µM.
In assay [1], `O=C(O)[C@@H]1CCCCN1C(=O)N[C@@H](COP(=O)(O)O)Cc1ccccc1` [Example 16d, 1-(2-Phenyl-1-phosphonooxymethyl-ethylcarbamoyl)-piperidine-2-carboxylic acid] displayed a Ki of less than 10 µM. The Kd in assay [2] was less than 10 µM.
In assay [1], `O=C(N[C@@H](COP(=O)(O)O)Cc1ccccc1)c1cccc(Cl)c1` [Example 25-8, Phosphoric acid mono-(2-{[1-(3-chloro-phenyl)-methanoyl]-amino}-3-phenyl-propyl) ester] yielded an inhibition constant (Ki) of less than 1 µM.
With `CC(C)C(=O)N[C@@H](COP(=O)(O)O)Cc1ccccc1` [Example 25-15], in assay [1], the inhibition constant (Ki) was less than 10 µM.
Take `CC(C)(C)C(=O)N[C@@H](COP(=O)(O)O)Cc1ccccc1` [Example 25-16, Phosphoric acid mono-[(R)-2-(2,2-dimethyl-propanoylamino)-3-phenyl-propyl]ester]: in assay [1], the inhibitory constant (Ki) was less than 1 µM.
In turn, `O=C(N[C@@H](COP(=O)(O)O)Cc1ccccc1)c1ccc2cc(O)ccc2c1` [Example 25-20, Phosphoric acid mono-(2-{[1-(6-hydroxy-naphthalen-2-yl)-methanoyl]-amino}-3-phenyl-propyl)ester] yielded a dissociation constant Kd in assay [2] of less than 1 µM.
`O=C(N[C@@H](COP(=O)(O)O)Cc1ccccc1)c1ccc2ccccc2c1O` [Example 25-21] displayed a dissociation constant Kd in assay [2] of less than 1 µM.
Consider `O=C(N[C@@H](COP(=O)(O)O)Cc1ccccc1)c1cc2ccccc2cc1O` [Example 25-22, Phosphoric acid mono-(2-{[1-(3-hydroxy-naphthalen-2-yl)-methanoyl]-amino}-3-phenyl-propyl)ester], for which the dissociation constant Kd in assay [2] was less than 1 µM.
`O=C(N[C@@H](COP(=O)(O)O)Cc1ccccc1)c1ccc2[nH]cnc2c1` [Example 25-23, Phosphoric acid mono-{(R)-2-[(1H-benzoimidazole-5-carbonyl)-amino]-3-phenyl-propyl}ester] gave a Ki in assay [1] of less than 1 µM. The Kd in assay [2] is less than 1 µM.
In assay [2], `O=C(N[C@@H](COP(=O)(O)O)Cc1ccccc1)c1ccc2ccccc2c1Br` [Example 25-24, Phosphoric acid mono-(2-{[1-(1-bromo-naphthalen-2-yl)-methanoyl]amino}-3-phenyl-propyl)ester] displayed an equilibrium dissociation constant (Kd) of less than 1 µM.
The molecule `COc1ccc2cc(C(=O)N[C@@H](COP(=O)(O)O)Cc3ccccc3)ccc2c1` [Example 25-25, Phosphoric acid mono-(2-{[1-(6-methoxy-naphthalen-2-yl)-methanoyl]-amino}-3-phenyl-propyl)ester] gave a dissociation constant (Kd) in assay [2] of less than 1 µM.
In assay [1], `CC(C)(C)C(=O)N[C@@H](COP(=O)(O)O)Cc1cccc(F)c1` [Example 25-30, Phosphoric acid mono-[(R)-2-(2,2dimethyl-propanoylamino)-3-(3-fluoro-phenyl)-propyl]ester] returned an inhibitory constant (Ki) of less than 1 µM. Further, the Kd in assay [2] was less than 1 µM.
On to `CCN(CC)c1ccc2cc(C(=O)N[C@@H](COP(=O)(O)O)Cc3cccc(F)c3)c(=O)oc2c1` [Example 25-33, Phosphoric acid mono-[(R)-2-{[1-(diethylamino-oxo-2H-chromen-3-yl)-methanoyl]-amino}-3-(3-fluoro-phenyl)-propyl]ester], for which, in assay [1], the Ki was less than 1 µM.
Same read-out and setting: the value for `CC(=O)N[C@@H](COP(=O)(O)O)Cc1ccccc1` [Example 25-40, Phosphoric acid mono-(2-acetylamino-3-phenyl-propyl)ester] was less than 10 µM.
In assay [1], `O=C(N[C@@H](COP(=O)(O)O)CC1CCCCC1)c1ccc2ccccc2c1` [Example 33, Phosphoric acid mono-{(R)-3-cyclohexyl-2-[(1-naphthalen-2-yl-methanoyl)-amino]-propyl}ester] showed an inhibition constant Ki of less than 10 µM.
Take `CN(C)c1cccc2c(S(=O)(=O)N[C@@H](COP(=O)(O)O)Cc3cccc(F)c3)cccc12` [Example 42, Phosphoric acid mono-[(R)-2-(5-dimethylamino-naphthalene-1-sulfonylamino)-3-(3-fluoro-phenyl)-propyl]ester]: the inhibition constant (Ki) in assay [1] is less than 10 µM.
`CN(C(=O)c1ccc2ccccc2c1)C(COP(=O)(O)O)Cc1ccccc1` (centres unmarked) [Example 58, Phosphoric acid mono-{[methyl-(1-naphthalen-2-yl-methanoyl)-amino]-phenyl-propyl}ester]: the Kd in assay [2] was less than 10 µM.
`O=C(N[C@@H](COP(=O)(O)O)Cc1cccc(F)c1)c1ccc2nc[nH]c2c1` [Example 61, Phosphoric acid mono-[(R)-2-[(1-3H-benzoimidazol-5-yl-methanoyl)-amino]-3-(3-fluoro-phenyl)-propyl]ester] returned a Ki in assay [1] of less than 1 µM.
On the same count and under the same terms, next, `O=C(N[C@@H](CCP(=O)(O)O)Cc1cccc(F)c1)c1cc2ccccc2s1` [Example 71, ([(R)-3-[(Benzo[b]thiophene-2-carbonyl)-amino]4-(3-fluoro-phenyl)-butyl]-phosphonic acid)]: less than 1 µM.
In the case of `NS(=O)(=O)OC[C@@H](Cc1ccccc1)NC(=O)c1ccc2ccccc2c1` [Example 72, Sulfamic acid 2-[(1-naphthalen-2-yl-methanoyl)-amino]-3-phenyl-propyl ester], the dissociation constant (Kd) in assay [2] is less than 100 µM.
As for `O=C(OC(CCCc1ccccc1)CCCc1ccccc1)[C@@H]1CCCCN1C(=O)N[C@@H](COP(=O)(O)O)Cc1cccc(F)c1` [Example 79, (S)-1-[(R)-2-(3-Fluoro-phenyl)-1-phosphonooxymethyl-ethylcarbamoy]-piperidine-2-carboxylic acid 4-phenyl-1-(3-phenyl-propyl)-butyl ester], the Ki in assay [1] was less than 1 µM.
On the same count and under the same terms, the value for `CC(=O)OCOP(=O)(OCOC(C)=O)OC[C@@H](Cc1cccc(F)c1)NC(=O)c1cc2ccccc2s1` [Example 85, Acetic acid acetoxymethoxy-[(R)-2-[(1-benzo[b]thiophen-2-yl-methanoyl)-amino]-3-(3-fluoro-phenyl)-propoxy]-phosphoryloxymethyl ester] was less than 100 µM.
On the same count and under the same terms, the value for `CN(C)c1cccc2c(S(=O)(=O)N[C@@H](COP(=O)(Oc3ccccc3)Oc3ccccc3)Cc3cccc(F)c3)cccc12` [Example 86, Phosphoric acid (R)-2-(5-dimethylamino-naphthalene-1-sulfonylamino)-3-(3-fluoro-phenyl)-propyl ester diphenyl ester] was less than 100 µM.
Regarding `O=C(N[C@H](Cc1cccc(F)c1)CP(=O)(O)O)c1cc2ccccc2s1` [Example 98, [2-[(Benzo[b]thiophene-2-carbonyl)-amino]-3-(3-fluoro-phenyl)-propyl]-phosphonic acid], in assay [1], the inhibitory constant (Ki) is less than 1 µM.
